Structures are written as SMILES.

Results on three compounds are retold here after US20070093469A1, “Substituted azetidine compounds as cyclooxygenase-1-cyclooxygenase-2 inhibitors, and their preparation and use as medicaments” (LABORATORIOS DEL DR. ESTEVE S.A, priority 2004, published 2007).

The target in experiment [1] is T1, Cox-2 enzyme (Ovis aries, UniProt P79208).
T1 construct: purchased Cayman Chemical 60120
T1 sequence (P79208 17-603): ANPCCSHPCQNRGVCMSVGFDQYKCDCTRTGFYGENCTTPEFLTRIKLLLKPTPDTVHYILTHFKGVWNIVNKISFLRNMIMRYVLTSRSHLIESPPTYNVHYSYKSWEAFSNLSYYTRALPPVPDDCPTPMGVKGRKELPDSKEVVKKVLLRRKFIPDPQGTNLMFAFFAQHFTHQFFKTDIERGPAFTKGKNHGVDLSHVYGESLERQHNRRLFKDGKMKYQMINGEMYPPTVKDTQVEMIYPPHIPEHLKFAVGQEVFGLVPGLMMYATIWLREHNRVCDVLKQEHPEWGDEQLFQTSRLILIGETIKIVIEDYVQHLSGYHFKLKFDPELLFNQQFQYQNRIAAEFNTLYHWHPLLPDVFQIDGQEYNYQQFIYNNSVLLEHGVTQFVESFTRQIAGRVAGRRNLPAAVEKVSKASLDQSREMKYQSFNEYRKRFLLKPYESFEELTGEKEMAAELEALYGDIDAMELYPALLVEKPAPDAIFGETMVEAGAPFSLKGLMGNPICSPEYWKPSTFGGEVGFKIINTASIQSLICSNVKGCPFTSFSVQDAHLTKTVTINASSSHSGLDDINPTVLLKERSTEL
Nature of the experiment: Cox-1/Cox-2 enzyme assay (Cox-2). The conditions noted are these: for IC50: enzyme assay. Type of experiment: biochemical. As for the experimental part:
I. Cox-1/Cox-2 Enzyme Assay:
The Cox-1/Cox-2 enzyme assay for the inventive azetidine compounds is carried out according to the following description:
Immediately after the addition of the substrate, the slope corresponding to the optical density increase at 480 nm is recorded for 1 minute. The reaction is monitored with a Hewlett-Packard 8452A spectrophotometer.

The target in experiment [2] is T2, Cox-1 (Homo sapiens, UniProt P23219).
T2 construct: from tissue; host or cells: fresh human whole blood
T2 sequence (P23219 24-599): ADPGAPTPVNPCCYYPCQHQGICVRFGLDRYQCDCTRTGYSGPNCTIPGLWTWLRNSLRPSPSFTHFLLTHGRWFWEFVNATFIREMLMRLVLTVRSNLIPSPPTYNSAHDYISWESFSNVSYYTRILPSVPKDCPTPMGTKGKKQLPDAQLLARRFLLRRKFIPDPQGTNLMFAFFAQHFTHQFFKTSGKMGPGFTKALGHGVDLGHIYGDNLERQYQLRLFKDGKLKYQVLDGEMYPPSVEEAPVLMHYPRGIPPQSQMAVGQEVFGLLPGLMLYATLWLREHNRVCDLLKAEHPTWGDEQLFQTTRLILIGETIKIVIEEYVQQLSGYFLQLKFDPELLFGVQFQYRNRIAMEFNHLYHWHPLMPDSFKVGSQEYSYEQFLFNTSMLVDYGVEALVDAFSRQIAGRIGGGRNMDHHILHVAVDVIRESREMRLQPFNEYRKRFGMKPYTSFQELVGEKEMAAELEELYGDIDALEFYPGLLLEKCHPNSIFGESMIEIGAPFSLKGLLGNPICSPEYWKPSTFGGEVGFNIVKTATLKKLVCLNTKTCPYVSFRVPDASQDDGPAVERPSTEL
The experiment in a line: Cox-1 activity in human whole blood (TXB2). The experiment is classed as cell-based. The conditions noted are these: read-out: hWB inhibition COX-1 IC50. As for the experimental part:
II. Determination of Cox-1- and Cox-2-Activity in Human Whole Blood
The Cox-1- and Cox-2-activity in human whole blood is determined according to a modification of the method described in the publication of C. Brideau et al., “A human whole blood assay for clinical evaluation of biochemical efficacy of cyclooxygenase inhibitors”, Inflamm Res 1996; 45: 68-74. The respective part of the description is hereby incorporated by reference and forms part of the present disclosure.
For Cox-1 activity determination, fresh human blood is distributed in a volume of 0.5 ml to silicone Eppendorf tubes, into which 2 μl of the compound to be tested or dimethylsulfoxide (DMSO) at a final concentration of 0.4% (volume/volume). The tubes are inverted for homogenization and incubated for 1 hour at 37° C. under slight stirring. Afterwards they are centrifuged for 15 min at 10500 g and 100 μl of serum is collected. Proteins are precipitated by the addition of 400 μl of methanol to each tube, tubes were centrifuged for 10 minutes at 5000 g and 300 μl of supernatant is aspirated and then dried under nitrogen atmosphere.
Tromboxane B2 (TXB2) concentration is quantified using an assay kit (Caymann Chemical, Ann Arbor, Mich., U.S.A., Catalogue number 519031) after reconstitution into 300 μl assay buffer supplied in the assay kit.

Experiment [3] concerns rats. The experiment in a line: Analgesia test in rats (carrageenan, thermal stimulus). Type of experiment: in vivo. Particulars: Rattus norvegicus, oral route, 2 hours after administration, read-out: ED50 analgesic activity. As for the experimental part:
III: Analgesia Test in Rats
The inventive compounds are tested for analgesic activity as described above is carried out as described in the publication of K. Hargreaves et al., Pain, 32, 77-88, (1988). The respective part of the description is hereby incorporated by reference and forms part of the disclosure.
The rats are transferred to the experimentation laboratory, where they remain in groups of 5, in makrolon cages with a barred floor to avoid coprophagy. At the beginning of the experiment, water and food were removed, and animals were adequately weighed and marked.
Each rat receives via subplantar injection 0.1 ml of sterile saline solution into the left hind paw, followed by 0.1 ml of a 2% (weight/volume) carrageenan suspension in sterile saline solution into the right hind paw.
Two hours after the subplantar injections of carrageenan and vehicle, each rat receives by oral route the compounds to be tested, suspended in 5% (weight/volume) gum arabic, administered at 10 ml per kg of body weight. Two hours after the administration of the compounds to be tested, the values for analgesic activity are determined. To this purpose, the rats are transferred to the methacrylate chambers of an analgesimeter provided with a glass floor. Once the acclimatisation period in the chambers is over (i.e. after 5 minutes) an infra-red beam lamp capable of producing a thermal stimulus, is placed below the rat's paws.
The thermal stimulus, previously calibrated at 10 Amperes, is applied to each of the hind paws with at least 1 minute intervals. The response of the rats to pain consists of raising the paw, thus avoiding contact with the floor. […] The rats are tested once only to avoid possible learning behaviour.

For experiment [4], the system named is PGE2 production in rat gastric mucosa. The experiment in a line: PGE2 production in rat gastric mucosa. The experiment is classed as in vivo. The conditions noted are these: rats, oral route, read-out: PGE2 gastric mucose ED50. As for the experimental part:
VI: PGE2 Production in Rat Inflammatory Exudate and Gastric Mucosa
The PGE2 production in rat inflammatory exudate and gastric mucosa is carried out as described in the publication of O Tofanetti et al., “Effect of nimesulide on cyclo-oxygenase activity in rat gastric mucosa and inflammatory exudate”, Med Sci Res 17, 745-746 (1989). The respective part of the description is hereby incorporated by reference and forms part of the present disclosure.
For this text 6 male wistar rats (Interfauna-St Feliú de Codines, Barcelona) of approximately 200 g (each approximately 6 weeks of age) are used. The compounds to be tested are administered via oral route in gum Arabic at 5% (weight/volume) at a rate of 10 ml/kg.
One hour after administration of the compounds and under halothane anaesthesia, each rat is implanted subcutaneously in the interescapular area a 40×15×5 mm polyester sponge, soaked in a 0.5% suspension of carrageenan. Rats are sacrificed 6 hours after the implant, the sponges are removed and squeezed. The exudates are collected and centrifuged at 6000×G for 15 minutes.
The rats's stomachs are removed and the gastric mucosa is detached from the underlying layers and by means of a 10 mm diameter die, mucosa samples from an area between the gastric corpus and pyloric antrum are taken. The mucosal PGE2 is extracted. PGE2 concentrations from the inflammatory exudates and the gastric mucosa are determined by means of inmmunoassay reagents of Cayman Chemical kit, Ann Arbor, Mich., U.S.A. (Catalogue number: 514010) according to the manufacturer's instructions.

What is called IC50 is the point on the concentration scale where inhibition reaches its midpoint. By inhibition is commonly meant the change of the read-out against control, counted positive when it falls. For orientation: ED50 means the midpoint of the dose-response relation. Regarding `CC(C)(C)c1cc(C(=O)N2CC(O)C2)cc(C(C)(C)C)c1` [Example 2, (3,5-di-tert-butyl-phenyly)-(3-hydroxy-azetidin-1-yl)-methanone], the values for the IC50 in experiment [1] and in experiment [2] were 1.8 µM and 0.5 µM, respectively. Besides, the inhibition at 50 µM in experiment [1] (read-out: % inhibition 5 × 10^−5 M COX-2) is 78%. Further, the ED50 came out at 1.65 mg/kg in experiment [3] and 3.7 mg/kg in experiment [4].
With `CC(C)(C)c1cc(C(=O)N2CC(O)C2)cc2c1OCC2(C)C` [Example 14, (7-tert-butyl-3,3-dimethyl-2,3-dihydro-benzofuran-5-yl)-(3-hydroxy-azetidin-1-yl)-methanone], the IC50 turned out to be 0.6 µM in experiment [1] and 0.05 µM in experiment [2]. Also, the results for the ED50 in experiment [3] and in experiment [4] were 3 mg/kg and 2.7 mg/kg, respectively.
Consider `CC1C(O)CN1C(=O)c1cc(C(C)(C)C)c(O)c(C(C)(C)C)c1` (stereo not shown) [Example 4, (3,5-di-tert-butyl-4-hydroxy-phenyl)-(3-hydroxy-2-methyl-azetidin-1-yl)-methanone], for which the IC50 stood at 3.75 µM in experiment [1] and 0.5 µM in experiment [2]. The ED50 was 0.7 mg/kg in experiment [3] and 1 mg/kg in experiment [4].
